CCOC(=O)[C@H](CCc1ccccc1)N[C@@H](C)C(=O)N1CCC[C@H]1C(=O)O.O=C(O)/C=C\C(=O)O
solubility (mole fraction)
Conditions	273.15 K	278.15 K	283.15 K	288.15 K	293.15 K	298.15 K	303.15 K	308.15 K	313.15 K	318.15 K
in acetone	0.00118	0.00139	0.00176	0.0021	0.00243	0.00302	0.0038	0.00451	0.0054	0.00651
in acetonitrile	0.000339	0.000452	0.000569	0.000716	0.0009	0.00117	0.00153	0.00204	0.00261	0.00334
in ethanol	0.000616	0.000761	0.000998	0.00133	0.00177	0.00226	0.00292	0.00366	0.00449	0.00536
in ethyl acetate	0.0013	0.00171	0.00231	0.00304	0.00379	0.00471	0.00576	0.00689	0.00796	0.00941
in isopropanol	0.000144	0.000184	0.000242	0.000327	0.000452	0.000605	0.000809	0.00105	0.00133	0.00176
in n-octanol	0.000311	0.000406	0.000509	0.000642	0.00083	0.00105	0.00131	0.00167	0.00206	0.00256

CCOC(=O)[C@H](CCc1ccccc1)N[C@@H](C)C(=O)O
solubility (mole fraction)
Conditions	273.15 K	278.15 K	283.15 K	288.15 K	293.15 K	298.15 K	303.15 K	308.15 K	313.15 K	318.15 K
in acetone	0.00387	0.00426	0.00468	0.00515	0.00568	0.00627	0.007	0.0078	0.00868	0.0097
in acetonitrile	0.00012	0.000199	0.000288	0.000427	0.000608	0.000907	0.00129	0.00183	0.00255	0.00349
in ethanol	0.00273	0.00281	0.00294	0.00312	0.00334	0.0036	0.00396	0.00436	0.00489	0.00545
in ethyl acetate	0.00898	0.0092	0.00951	0.00991	0.0104	0.0109	0.0115	0.0123	0.0131	0.014
in isopropanol	0.000921	0.00105	0.0012	0.00141	0.00164	0.00191	0.00221	0.00257	0.00298	0.00346
in n-octanol	0.00215	0.00223	0.00233	0.00246	0.00263	0.00284	0.0031	0.00343	0.00378	0.0042

Reference: BigSolDB 2.1
